# Data reported in patent EP3609473B1, “ORAL COMPOSITIONS FOR THE TREATMENT OF IRON […]” (Labomar S.p.A., priority 2017, dated 2018).
# Details: after SGF, 50 ml simulated intestinal fluid (SIF) added, pH settled at 6.0 with NaOH 2.5% w/v
# Experimental: The solid composition (A) is maintained for 90 minutes (corresponding to the empty stomach emptying time) in a simulated gastric environment (SGF) pH 1.5 by adding HCl, thermostated at 37°C.
# Subsequently, 50 ml of simulated intestinal fluid (SIF) are added to the system to simulate the transit in the first intestinal tract and the pH is settled at 6.0 with NaOH 2.5% w/v.
smiles,measurement,value
"NCC(=O)[O-].NCC(=O)[O-].[Fe+2] [bisglycinate iron, ferrous bisglycinate]",colour of the liquid (purple = iron in reduced form; amber = no more reducible ferric oxides),amber-coloured liquid
